BigSolDB 2.1

SMILES: c1nc[nH]n1
- solubility (mole fraction) (in ethanol, 283.18 K): 0.131
- solubility (mole fraction) (in ethanol, 288.25 K): 0.147
- solubility (mole fraction) (in ethanol, 293.21 K): 0.164
- solubility (mole fraction) (in ethanol, 298.18 K): 0.184
- solubility (mole fraction) (in ethanol, 303.15 K): 0.205
- solubility (mole fraction) (in ethanol, 308.14 K): 0.228
- solubility (mole fraction) (in ethanol, 313.21 K): 0.253
- solubility (mole fraction) (in ethanol, 318.23 K): 0.28
- solubility (mole fraction) (in ethanol, 323.22 K): 0.308
- solubility (mole fraction) (in ethanol, 328.27 K): 0.339
- solubility (mole fraction) (in ethanol, 333.28 K): 0.371
- solubility (mole fraction) (in ethyl acetate, 283.21 K): 0.0268
- solubility (mole fraction) (in ethyl acetate, 288.29 K): 0.032
- solubility (mole fraction) (in ethyl acetate, 293.21 K): 0.0365
- solubility (mole fraction) (in ethyl acetate, 298.19 K): 0.041
- solubility (mole fraction) (in ethyl acetate, 303.18 K): 0.0457
- solubility (mole fraction) (in ethyl acetate, 308.27 K): 0.0513
- solubility (mole fraction) (in ethyl acetate, 313.2 K): 0.0578
- solubility (mole fraction) (in ethyl acetate, 318.21 K): 0.066
- solubility (mole fraction) (in ethyl acetate, 323.16 K): 0.0759
- solubility (mole fraction) (in ethyl acetate, 328.17 K): 0.0884
- solubility (mole fraction) (in ethyl acetate, 333.27 K): 0.104
- solubility (mole fraction) (in ethyl formate, 283.21 K): 0.0208
- solubility (mole fraction) (in ethyl formate, 288.23 K): 0.0246
- solubility (mole fraction) (in ethyl formate, 293.29 K): 0.0286
- solubility (mole fraction) (in ethyl formate, 298.24 K): 0.0331
- solubility (mole fraction) (in ethyl formate, 303.26 K): 0.0384
- solubility (mole fraction) (in ethyl formate, 308.17 K): 0.0446
- solubility (mole fraction) (in ethyl formate, 313.24 K): 0.0524
- solubility (mole fraction) (in ethyl formate, 318.27 K): 0.0617
- solubility (mole fraction) (in ethyl formate, 323.31 K): 0.073
- solubility (mole fraction) (in isopropanol, 283.17 K): 0.129
- solubility (mole fraction) (in isopropanol, 288.21 K): 0.144
- solubility (mole fraction) (in isopropanol, 293.16 K): 0.159
- solubility (mole fraction) (in isopropanol, 298.23 K): 0.176
- solubility (mole fraction) (in isopropanol, 303.27 K): 0.193
- solubility (mole fraction) (in isopropanol, 308.19 K): 0.211
- solubility (mole fraction) (in isopropanol, 313.24 K): 0.232
- solubility (mole fraction) (in isopropanol, 318.22 K): 0.254
- solubility (mole fraction) (in isopropanol, 323.27 K): 0.278
- solubility (mole fraction) (in isopropanol, 328.2 K): 0.304
- solubility (mole fraction) (in isopropanol, 333.19 K): 0.332
- solubility (mole fraction) (in isopropanol, 338.18 K): 0.363
- solubility (mole fraction) (in isopropanol, 343.26 K): 0.397
- solubility (mole fraction) (in methyl acetate, 283.27 K): 0.0968
- solubility (mole fraction) (in methyl acetate, 288.21 K): 0.106
- solubility (mole fraction) (in methyl acetate, 293.19 K): 0.117
- solubility (mole fraction) (in methyl acetate, 298.21 K): 0.128
- solubility (mole fraction) (in methyl acetate, 303.2 K): 0.141
- solubility (mole fraction) (in methyl acetate, 308.29 K): 0.155
- solubility (mole fraction) (in methyl acetate, 313.18 K): 0.171
- solubility (mole fraction) (in methyl acetate, 318.16 K): 0.189
- solubility (mole fraction) (in methyl acetate, 323.24 K): 0.21
- solubility (mole fraction) (in n-butyl acetate, 283.2 K): 0.0141
- solubility (mole fraction) (in n-butyl acetate, 288.23 K): 0.0166
- solubility (mole fraction) (in n-butyl acetate, 293.26 K): 0.0202
- solubility (mole fraction) (in n-butyl acetate, 298.22 K): 0.024
- solubility (mole fraction) (in n-butyl acetate, 303.24 K): 0.0279
- solubility (mole fraction) (in n-butyl acetate, 308.17 K): 0.032
- solubility (mole fraction) (in n-butyl acetate, 313.28 K): 0.037
- solubility (mole fraction) (in n-butyl acetate, 318.21 K): 0.0428
- solubility (mole fraction) (in n-butyl acetate, 323.16 K): 0.0498
- solubility (mole fraction) (in n-butyl acetate, 328.24 K): 0.0586
- solubility (mole fraction) (in n-butyl acetate, 333.19 K): 0.0688
- solubility (mole fraction) (in n-butyl acetate, 338.18 K): 0.0809
- solubility (mole fraction) (in n-butyl acetate, 343.23 K): 0.0955
- solubility (mole fraction) (in n-butyl acetate, 348.18 K): 0.113
- solubility (mole fraction) (in n-butyl acetate, 353.19 K): 0.136
- solubility (mole fraction) (in n-butyl acetate, 358.18 K): 0.167
- solubility (mole fraction) (in n-butyl acetate, 363.26 K): 0.211
- solubility (mole fraction) (in n-propanol, 283.17 K): 0.12
- solubility (mole fraction) (in n-propanol, 288.18 K): 0.135
- solubility (mole fraction) (in n-propanol, 293.27 K): 0.15
- solubility (mole fraction) (in n-propanol, 298.19 K): 0.168
- solubility (mole fraction) (in n-propanol, 303.21 K): 0.187
- solubility (mole fraction) (in n-propanol, 308.23 K): 0.208
- solubility (mole fraction) (in n-propanol, 313.27 K): 0.231
- solubility (mole fraction) (in n-propanol, 318.2 K): 0.256
- solubility (mole fraction) (in n-propanol, 323.22 K): 0.283
- solubility (mole fraction) (in n-propanol, 328.28 K): 0.313
- solubility (mole fraction) (in n-propanol, 333.18 K): 0.344
- solubility (mole fraction) (in n-propanol, 338.23 K): 0.378
- solubility (mole fraction) (in n-propanol, 343.29 K): 0.415
- solubility (mole fraction) (in propylene glycol, 283.16 K): 0.174
- solubility (mole fraction) (in propylene glycol, 288.27 K): 0.212
- solubility (mole fraction) (in propylene glycol, 293.26 K): 0.249
- solubility (mole fraction) (in propylene glycol, 298.16 K): 0.284
- solubility (mole fraction) (in propylene glycol, 303.19 K): 0.319
- solubility (mole fraction) (in propylene glycol, 308.18 K): 0.353
- solubility (mole fraction) (in propylene glycol, 313.2 K): 0.386
- solubility (mole fraction) (in propylene glycol, 318.28 K): 0.419
- solubility (mole fraction) (in propylene glycol, 323.21 K): 0.451
- solubility (mole fraction) (in propylene glycol, 328.22 K): 0.483
- solubility (mole fraction) (in propylene glycol, 333.23 K): 0.514
- solubility (mole fraction) (in propylene glycol, 338.29 K): 0.545
- solubility (mole fraction) (in propylene glycol, 343.21 K): 0.574
- solubility (mole fraction) (in propylene glycol, 348.23 K): 0.604
- solubility (mole fraction) (in propylene glycol, 353.24 K): 0.633
